Data taken from patent publication US10206394B2, “Herbicidal compounds” (Syngenta Participations AG, priority 2014, dated 2019).
Like-named read-outs stand apart in the source and are kept apart here.

Experiments:
Test in all cases: Glasshouse assay for herbicidal activity (pre- and post-emergence), percentage phytotoxicity
Assay type in all cases: in vivo
[1] = test system: Alopecurus myosuroides (ALOMY); conditions: Alopecurus myosuroides
Summary of the method: (§1)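 Herbicide was applied to potted plants sown in standard soil, one day after sowing for PRE and after about 12 days for POST. Visual percentage damage ratings followed at 15 DAA (POST) and 20 DAA (PRE).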

[2] = test system: Echinochloa crus-galli (ECHCG); conditions: Echinochloa crus-galli
Summary of the method: as §1

Lolium perenne (LOLPE) = conditions: Lolium perenne
Summary of the method: as §1

Avena fatua (AVEFA) = conditions: Avena fatua
Summary of the method: as §1

[3] = post-emergence, 360 h, Rate 250 g/ha, post-emergence, assessed visually 15 DAA, 100%=total damage, 0%=no damage, read-out: Post-emergence herbicidal activity (percentage phytotoxicity) ALOMY POST
[4] = pre-emergence, 480 h, Rate 250 g/ha, pre-emergence, assessed visually 20 DAA, 100%=total damage, 0%=no damage, read-out: Pre-emergence herbicidal activity (percentage phytotoxicity) ALOMY PRE
[5] = post-emergence, 360 h, Rate 250 g/ha, post-emergence, assessed visually 15 DAA, 100%=total damage, 0%=no damage, read-out: Post-emergence herbicidal activity (percentage phytotoxicity) ECHCG POST
[6] = pre-emergence, 480 h, Rate 250 g/ha, pre-emergence, assessed visually 20 DAA, 100%=total damage, 0%=no damage, read-out: Pre-emergence herbicidal activity (percentage phytotoxicity) ECHCG PRE
[7] = post-emergence, 360 h, Rate 250 g/ha, post-emergence, assessed visually 15 DAA, 100%=total damage, 0%=no damage, read-out: Post-emergence herbicidal activity (percentage phytotoxicity) LOLPE POST
[8] = pre-emergence, 480 h, Rate 250 g/ha, pre-emergence, assessed visually 20 DAA, 100%=total damage, 0%=no damage, read-out: Pre-emergence herbicidal activity (percentage phytotoxicity) LOLPE PRE
[9] = post-emergence, 360 h, Rate 250 g/ha, post-emergence, assessed visually 15 DAA, 100%=total damage, 0%=no damage, read-out: Post-emergence herbicidal activity (percentage phytotoxicity) AVEFA POST
[10] = pre-emergence, 480 h, Rate 250 g/ha, pre-emergence, assessed visually 20 DAA, 100%=total damage, 0%=no damage, read-out: Pre-emergence herbicidal activity (percentage phytotoxicity) AVEFA PRE
[11] = post-emergence, 360 h, 250 g/ha, post-emergence, 15 DAA, visual assessment (100%=total damage, 0%=no damage), read-out: Post-emergence herbicidal activity (percentage phytotoxicity) ALOMY POST
[12] = pre-emergence, 480 h, 250 g/ha, pre-emergence, 20 DAA, visual assessment (100%=total damage, 0%=no damage), read-out: Pre-emergence herbicidal activity (percentage phytotoxicity) ALOMY PRE
[13] = post-emergence, 360 h, 250 g/ha, post-emergence, 15 DAA, visual assessment (100%=total damage, 0%=no damage), read-out: Post-emergence herbicidal activity (percentage phytotoxicity) ECHCG POST
[14] = pre-emergence, 480 h, 250 g/ha, pre-emergence, 20 DAA, visual assessment (100%=total damage, 0%=no damage), read-out: Pre-emergence herbicidal activity (percentage phytotoxicity) ECHCG PRE
[15] = post-emergence, 360 h, 250 g/ha, post-emergence, 15 DAA, visual assessment (100%=total damage, 0%=no damage), read-out: Post-emergence herbicidal activity (percentage phytotoxicity) LOLPE POST
[16] = pre-emergence, 480 h, 250 g/ha, pre-emergence, 20 DAA, visual assessment (100%=total damage, 0%=no damage), read-out: Pre-emergence herbicidal activity (percentage phytotoxicity) LOLPE PRE
[17] = post-emergence, 360 h, 250 g/ha, post-emergence, 15 DAA, visual assessment (100%=total damage, 0%=no damage), read-out: Post-emergence herbicidal activity (percentage phytotoxicity) AVEFA POST
[18] = pre-emergence, 480 h, 250 g/ha, pre-emergence, 20 DAA, visual assessment (100%=total damage, 0%=no damage), read-out: Pre-emergence herbicidal activity (percentage phytotoxicity) AVEFA PRE

Row | Structure (SMILES) | pest or weed control at 250 g/ha [1, 3] [%] | pest or weed control at 250 g/ha [1, 4] [%] | pest or weed control at 250 g/ha [2, 5] [%] | pest or weed control at 250 g/ha [2, 6] [%] | pest or weed control at 250 g/ha (Lolium perenne (LOLPE); [7]) [%] | pest or weed control at 250 g/ha (Lolium perenne (LOLPE); [8]) [%] | pest or weed control at 250 g/ha (Avena fatua (AVEFA); [9]) [%] | pest or weed control at 250 g/ha (Avena fatua (AVEFA); [10]) [%] | pest or weed control at 250 g/ha [1, 11] [%] | pest or weed control at 250 g/ha [1, 12] [%] | pest or weed control at 250 g/ha [2, 13] [%] | pest or weed control at 250 g/ha [2, 14] [%] | pest or weed control at 250 g/ha (Lolium perenne (LOLPE); [15]) [%] | pest or weed control at 250 g/ha (Lolium perenne (LOLPE); [16]) [%] | pest or weed control at 250 g/ha (Avena fatua (AVEFA); [17]) [%] | pest or weed control at 250 g/ha (Avena fatua (AVEFA); [18]) [%]
1 | Cc1cc(-c2ncc(Cl)cc2F)cc(C)c1C1C(=O)CC(CC(=O)NCc2cccc([N+](=O)[O-])c2)C1=O (stereo not drawn) [Compound A122] | 90 | 70 | 100 | 90 | 70 | 20 | 100 | 0 | – | – | – | – | – | – | – | –
2 | Cc1cc(C)c(C2C(=O)CC(CC(=O)NCC(F)F)C2=O)c(C)c1 (stereo not drawn) [Compound B57] | – | – | – | – | – | – | – | – | 70 | 70 | 80 | 90 | 80 | 80 | 80 | 20
3 | Cc1cc(-c2ncc(F)cc2F)cc(C)c1C1C(=O)CC(CC(=O)NCc2ccc(F)c(F)c2)C1=O (stereo not drawn) [Compound B73] | – | – | – | – | – | – | – | – | 100 | 90 | 100 | 100 | 100 | 90 | 100 | 90
4 | Cc1cc(C)c(C2C(=O)CC(C(C)C(=O)NCc3cccc(C(F)(F)F)c3)C2=O)c(C)c1 (stereo not drawn) [Compound A166] | 40 | 40 | 90 | 70 | 70 | 70 | 70 | 20 | – | – | – | – | – | – | – | –
5 | C/C=C/CNC(=O)CC1CC(=O)C(c2c(C)cc(-c3ncc(Cl)cc3F)cc2C)C1=O (stereo not drawn) [Compound B161] | – | – | – | – | – | – | – | – | 100 | 90 | 100 | 90 | 100 | 100 | 100 | 80
6 | CC#Cc1cc(C)c(C2C(=O)CC(CC(=O)NCCOC)C2=O)c(CC)c1 (stereo not drawn) [Compound A49] | 100 | 100 | 100 | 100 | 100 | 100 | 100 | 100 | – | – | – | – | – | – | – | –
